According to patent US20090123907A1 (priority 2004, published 2009):

Assays:
Assay type in all cases: cell-based
platelets [1] = assay: Platelet preservation in platelet rich plasma with 1% citrate (lysine citrate); settings: PRP 1% citrate, room temperature
Procedure: (§1) In the experiment anticoagulated blood (0.4% citrate by weight) was centrifuged to produce platelet Rich Plasma (PRP). To test samples of PRP citric acid stock solution containing sufficient lysine to bring the solution pH to 7.0 was added to increase the citrate concentration to 1% by weight. Following this addition the pH of the mixture was 6.7. It will be apparent to one of skill in the art that the precise ratio of basic amino acid to citrate can be altered to adjust the pH of the either the stock solution or the final blood mixture. One sample of original PRP was used as the Normal Control, and one sample of the lysine citrate PRP was used as the Citrate Control. One sample of original PRP was inoculated with cultured Staphylococcus epidermidis to a final concentration of about 10 cfu/ml—this formed the Spiked Normal. […] The samples were incubated at room temperature for five days. Each day the number of platelets in each sample was counted; each sample was also tested for LDH (lactate dehydrogenase) and for the ability to induce a clot. Following the tests an aliquot of each sample was subcultured on nutrient agar and incubated under growth conditions.

[2] = test system: Staphylococcus epidermidis; assay: Colony counts of PRP samples subcultured on nutrient agar; settings: for Colony Counts: PRP 1% citrate spiked with about 10 cfu/ml, room temperature
Procedure: as §1

platelets [3] = assay: Platelet rich plasma supplemented with 2% lysine citrate, 25 days storage; settings: room temperature
Excerpt: […]. In this experiment plasma is centrifuged to create platelet rich plasma (PRP). […]. For the first fifteen days the platelet parameters remain essentially unchanged. During the next five day period (days 16-20) the platelet count drifts down slightly and LDH level increases slightly. During the last five days (days 21-25), the platelet count drops off rather precipitously and the LDH level rises rather steeply. Yet clotting time remains relatively constant.

[4] = Day 1, spiked with Staphylococcus epidermidis about 10 cfu/ml
[5] = Day 2, spiked with Staphylococcus epidermidis about 10 cfu/ml
[6] = Day 3, spiked with Staphylococcus epidermidis about 10 cfu/ml
[7] = Day 4, spiked with Staphylococcus epidermidis about 10 cfu/ml
[8] = Day 5, spiked with Staphylococcus epidermidis about 10 cfu/ml

For NCCCC[C@H](N)C(=O)O.O=C(O)CC(O)(CC(=O)O)C(=O)O [Lysine Citrate, lysine citrate], the Clot time (platelets [1]; [4]) was 29 s, the “Count (platelets)” value (platelets [1]; [4]) was 2.99 × 10^5 per μl and the LDH (platelets [1]; [4]) was 131 IU/L. For the same compound, the Clot time (platelets [1]; Day 1, unspiked) was 35 s, the “Count (platelets)” value (platelets [1]; Day 1, unspiked) was 3.2 × 10^5 per μl and the LDH (platelets [1]; Day 1, unspiked) was 133 IU/L. For the same compound, the Clot time (platelets [1]; [5]) was 32 s, the “Count (platelets)” value (platelets [1]; [5]) was 3.0 × 10^5 per μl and the LDH (platelets [1]; [5]) was 130 IU/L. The Clot time (platelets [1]; Day 2, unspiked) was 30 s, the “Count (platelets)” value (platelets [1]; Day 2, unspiked) was 3.1 × 10^5 per μl and the LDH (platelets [1]; Day 2, unspiked) was 133 IU/L. The Clot time (platelets [1]; [6]) was 30 s, the “Count (platelets)” value (platelets [1]; [6]) was 3.0 × 10^5 per μl and the LDH (platelets [1]; [6]) was 133 IU/L. The Clot time (platelets [1]; Day 3, unspiked) was 32 s, the “Count (platelets)” value (platelets [1]; Day 3, unspiked) was 3.3 × 10^5 per μl and the LDH (platelets [1]; Day 3, unspiked) was 134 IU/L. The Clot time (platelets [1]; [7]) was 30 s, the “Count (platelets)” value (platelets [1]; [7]) was 3.2 × 10^5 per μl and the LDH (platelets [1]; [7]) was 131 IU/L. The Clot time (platelets [1]; Day 4, unspiked) was 35 s, the “Count (platelets)” value (platelets [1]; Day 4, unspiked) was 3.5 × 10^5 per μl and the LDH (platelets [1]; Day 4, unspiked) was 133 IU/L. The Clotting time (platelets [1]; [8]) was 32 s, the “Count (platelets)” value (platelets [1]; [8]) was 3.0 × 10^5 per μl and the LDH (platelets [1]; [8]) was 131 IU/L. The Clotting time (platelets [1]; Day 5, unspiked) was 33 s, the “Count (platelets)” value (platelets [1]; Day 5, unspiked) was 3.1 × 10^5 per μl and the LDH (platelets [1]; Day 5, unspiked) was 135 IU/L. For the same compound, the “Colony Counts” value ([2]; Day 1) was 10, the “Colony Counts” value ([2]; Day 2) was 7 and the “Colony Counts” value ([2]; Day 3) was 5. The “Colony Counts” value ([2]; Day 4) was 9, the “Colony Counts” value ([2]; Day 5) was 7 and the “bacteria following plating onto nutrient agar” value ([2]; unspiked PRP 1% citrate) was “no bacteria”. For the same compound, the Clotting time (platelets [3]; Day 1, PRP) was 30 s, the “Count (platelets)” value (platelets [3]; Day 1, PRP) was 3.80 × 10^5 per μl and the LDH (platelets [3]; Day 1, PRP) was 106 IU/L. For the same compound, the Clotting time (platelets [3]; Day 2, PRP) was 30 s, the “Count (platelets)” value (platelets [3]; Day 2, PRP) was 3.75 × 10^5 per μl and the LDH (platelets [3]; Day 2, PRP) was 108 IU/L. For the same compound, the Clotting time (platelets [3]; Day 3, PRP) was 30 s, the “Count (platelets)” value (platelets [3]; Day 3, PRP) was 3.76 × 10^5 per μl and the LDH (platelets [3]; Day 3, PRP) was 109 IU/L. For the same compound, the Clotting time (platelets [3]; Day 4, PRP) was 30 s, the “Count (platelets)” value (platelets [3]; Day 4, PRP) was 3.80 × 10^5 per μl and the LDH (platelets [3]; Day 4, PRP) was 108 IU/L. For the same compound, the Clotting time (platelets [3]; Day 5, PRP) was 31 s, the “Count (platelets)” value (platelets [3]; Day 5, PRP) was 3.76 × 10^5 per μl and the LDH (platelets [3]; Day 5, PRP) was 108 IU/L. The Clotting time (platelets [3]; Day 6, PRP) was 31 s, the “Count (platelets)” value (platelets [3]; Day 6, PRP) was 3.75 × 10^5 per μl and the LDH (platelets [3]; Day 6, PRP) was 106 IU/L. The Clotting time (platelets [3]; Day 7, PRP) was 32 s, the “Count (platelets)” value (platelets [3]; Day 7, PRP) was 3.76 × 10^5 per μl and the LDH (platelets [3]; Day 7, PRP) was 109 IU/L. For the same compound, the Clotting time (platelets [3]; Day 8, PRP) was 30 s, the “Count (platelets)” value (platelets [3]; Day 8, PRP) was 3.76 × 10^5 per μl and the LDH (platelets [3]; Day 8, PRP) was 109 IU/L. The Clotting time (platelets [3]; Day 9, PRP) was 31 s, the “Count (platelets)” value (platelets [3]; Day 9, PRP) was 3.80 × 10^5 per μl and the LDH (platelets [3]; Day 9, PRP) was 108 IU/L. For the same compound, the Clotting time (platelets [3]; Day 10, PRP) was 30 s, the “Count (platelets)” value (platelets [3]; Day 10, PRP) was 3.77 × 10^5 per μl and the LDH (platelets [3]; Day 10, PRP) was 109 IU/L. The Clotting time (platelets [3]; Day 11, PRP) was 29 s, the “Count (platelets)” value (platelets [3]; Day 11, PRP) was 3.77 × 10^5 per μl and the LDH (platelets [3]; Day 11, PRP) was 109 IU/L. For the same compound, the Clotting time (platelets [3]; Day 12, PRP) was 30 s, the “Count (platelets)” value (platelets [3]; Day 12, PRP) was 3.75 × 10^5 per μl and the LDH (platelets [3]; Day 12, PRP) was 108 IU/L. For the same compound, the Clotting time (platelets [3]; Day 13, PRP) was 30 s, the “Count (platelets)” value (platelets [3]; Day 13, PRP) was 3.81 × 10^5 per μl and the LDH (platelets [3]; Day 13, PRP) was 110 IU/L. The Clotting time (platelets [3]; Day 14, PRP) was 31 s, the “Count (platelets)” value (platelets [3]; Day 14, PRP) was 3.80 × 10^5 per μl and the LDH (platelets [3]; Day 14, PRP) was 110 IU/L. For the same compound, the Clotting time (platelets [3]; Day 15, PRP) was 30 s, the “Count (platelets)” value (platelets [3]; Day 15, PRP) was 3.76 × 10^5 per μl and the LDH (platelets [3]; Day 15, PRP) was 109 IU/L. The Clotting time (platelets [3]; Day 16, PRP) was 29 s, the “Count (platelets)” value (platelets [3]; Day 16, PRP) was 3.75 × 10^5 per μl and the LDH (platelets [3]; Day 16, PRP) was 109 IU/L. The Clotting time (platelets [3]; Day 17, PRP) was 30 s, the “Count (platelets)” value (platelets [3]; Day 17, PRP) was 3.74 × 10^5 per μl and the LDH (platelets [3]; Day 17, PRP) was 108 IU/L. The Clotting time (platelets [3]; Day 18, PRP) was 30 s, the “Count (platelets)” value (platelets [3]; Day 18, PRP) was 3.76 × 10^5 per μl and the LDH (platelets [3]; Day 18, PRP) was 110 IU/L. The Clotting time (platelets [3]; Day 19, PRP) was 31 s, the “Count (platelets)” value (platelets [3]; Day 19, PRP) was 3.74 × 10^5 per μl and the LDH (platelets [3]; Day 19, PRP) was 111 IU/L. The Clotting time (platelets [3]; Day 20, PRP) was 30 s, the “Count (platelets)” value (platelets [3]; Day 20, PRP) was 3.74 × 10^5 per μl and the LDH (platelets [3]; Day 20, PRP) was 111 IU/L. The Clotting time (platelets [3]; Day 21, PRP) was 30 s, the “Count (platelets)” value (platelets [3]; Day 21, PRP) was 3.56 × 10^5 per μl and the LDH (platelets [3]; Day 21, PRP) was 103 IU/L. For the same compound, the Clotting time (platelets [3]; Day 22, PRP) was 31 s, the “Count (platelets)” value (platelets [3]; Day 22, PRP) was 3.42 × 10^5 per μl and the LDH (platelets [3]; Day 22, PRP) was 105 IU/L. The Clotting time (platelets [3]; Day 23, PRP) was 26 s, the “Count (platelets)” value (platelets [3]; Day 23, PRP) was 3.28 × 10^5 per μl and the LDH (platelets [3]; Day 23, PRP) was 122 IU/L. For the same compound, the Clotting time (platelets [3]; Day 24, PRP) was 29 s, the “Count (platelets)” value (platelets [3]; Day 24, PRP) was 2.91 × 10^5 per μl and the LDH (platelets [3]; Day 24, PRP) was 159 IU/L. The Clotting time (platelets [3]; Day 25, PRP) was 26 s, the “Count (platelets)” value (platelets [3]; Day 25, PRP) was 2.24 × 10^5 per μl and the LDH (platelets [3]; Day 25, PRP) was 279 IU/L.
